Legend:
[1] = system: PDE1 partially purified from bovine heart; assay: PDE1 biochemical enzyme assay ([3H]cAMP hydrolysis); settings: 100 μM; for % Inhibition of PDE1: Example 3
Protocol: In this example, a racemic mixture of flosequinan and the (+) and (−) enantiomers of flosequinan were subjected to biochemical enzyme assays to determine their respective percent inhibition of a variety of phosphodiesterases (PDE1-PDE6). The reaction conditions for each PDE assay were as follows. PDE1: PDE1 partially purified from bovine heart was used. A racemic mixture of flosequinan, and each enantiomer of flosequinan, all at a molar concentration of 100 μM, were independently incubated with 13 μg PDE1 enzyme, 1.0 μM [^3H]cAMP and CaCl2/calmodulin in Tris buffer pH 7.5 for 20 minutes at 30° C. The reaction was terminated by boiling for 2 minutes, and the resulting AMP was converted to adenosine by addition of 10 mg/ml snake venom nucleotidase and further incubation at 30° C. for 10 minutes. Unhydrolyzed cAMP was bound to AGI-X2 resin, and the remaining [^3H]adenosine in the aqueous phase was quantitated by scintillation counting.

[2] = target: T1, PDE3 partially purified from human platelets (Homo sapiens, UniProt Q14432); assay: PDE3 biochemical enzyme assay ([3H]cAMP hydrolysis); settings: 100 μM
T1 construct: PDE3 partially purified from human platelets was used; from tissue; host or cells: human platelets
T1 sequence (Q14432 whole entry): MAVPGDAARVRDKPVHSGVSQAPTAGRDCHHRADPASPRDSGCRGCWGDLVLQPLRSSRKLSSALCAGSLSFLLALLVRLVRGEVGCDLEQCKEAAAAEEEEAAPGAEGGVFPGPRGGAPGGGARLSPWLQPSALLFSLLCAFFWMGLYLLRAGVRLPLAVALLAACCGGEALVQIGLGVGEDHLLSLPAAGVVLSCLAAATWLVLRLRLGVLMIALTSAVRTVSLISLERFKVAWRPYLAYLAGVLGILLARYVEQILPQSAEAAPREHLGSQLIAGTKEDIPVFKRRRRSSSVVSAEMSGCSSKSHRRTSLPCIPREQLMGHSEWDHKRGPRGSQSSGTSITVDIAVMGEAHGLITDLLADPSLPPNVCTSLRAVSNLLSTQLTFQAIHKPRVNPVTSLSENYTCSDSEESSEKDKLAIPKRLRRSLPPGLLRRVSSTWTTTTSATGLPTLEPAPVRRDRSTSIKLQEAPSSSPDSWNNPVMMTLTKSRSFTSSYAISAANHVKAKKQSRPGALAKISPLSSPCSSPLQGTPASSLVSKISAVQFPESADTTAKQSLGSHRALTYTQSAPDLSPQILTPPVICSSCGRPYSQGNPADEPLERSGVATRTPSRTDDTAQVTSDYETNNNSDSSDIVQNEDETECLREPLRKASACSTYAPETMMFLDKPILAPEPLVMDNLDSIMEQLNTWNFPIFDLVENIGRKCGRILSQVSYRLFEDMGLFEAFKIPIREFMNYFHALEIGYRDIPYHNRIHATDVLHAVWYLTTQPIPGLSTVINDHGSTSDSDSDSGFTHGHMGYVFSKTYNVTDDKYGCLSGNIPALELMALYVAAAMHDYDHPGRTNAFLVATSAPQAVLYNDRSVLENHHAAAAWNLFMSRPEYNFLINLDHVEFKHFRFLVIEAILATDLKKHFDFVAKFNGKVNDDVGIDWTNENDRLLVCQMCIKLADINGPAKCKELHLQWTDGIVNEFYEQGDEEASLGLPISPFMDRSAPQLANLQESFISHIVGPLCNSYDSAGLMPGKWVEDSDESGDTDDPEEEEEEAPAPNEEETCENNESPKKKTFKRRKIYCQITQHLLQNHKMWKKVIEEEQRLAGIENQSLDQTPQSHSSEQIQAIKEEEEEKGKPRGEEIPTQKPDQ
Protocol: PDE3: PDE3 partially purified from human platelets was used. A racemic mixture of flosequinan, and each enantiomer of flosequinan, all at a molar concentration of 100 μM, were independently incubated with 13 μg PDE3 enzyme and 1 μM cAMP containing 0.01 μM [^3H]cAMP in Tris buffer pH 7.5 for 20 minutes at 30° C. The reaction was terminated by boiling for 2 minutes, and the resulting AMP was converted to adenosine by addition of 10 mg/ml snake venom nucleotidase and further incubation at 30° C. for 10 minutes. Unhydrolyzed cAMP was bound to AGI-X2 resin, and the remaining [^3H]adenosine in the aqueous phase was quantitated by scintillation counting.

[3] = following oral administration; cited from earlier work
[4] = cited from earlier work
[5] = Solubility of flosequinan; type: physicochemical; settings: water; organic solvents
Excerpt: Thus, while the present invention is not limited by the form of oral administration, aqueous and organic solution of flosequinan for oral administration is contemplated. Likewise, flosequinan can be associated with a solid pharmaceutical carrier for solid oral administration (i.e., in pill form).

[6] = target: T2, PDE6 partially purified from bovine retinal rod and activated by trypsin (Bos taurus, UniProt P11541+P23439); assay: PDE6 biochemical enzyme assay ([3H]cGMP hydrolysis); settings: Example 1; versus Viagra 0.3 μM
T2 construct: from tissue; host or cells: bovine retinal rod
T2 sequence (P11541 2-856 limits assumed): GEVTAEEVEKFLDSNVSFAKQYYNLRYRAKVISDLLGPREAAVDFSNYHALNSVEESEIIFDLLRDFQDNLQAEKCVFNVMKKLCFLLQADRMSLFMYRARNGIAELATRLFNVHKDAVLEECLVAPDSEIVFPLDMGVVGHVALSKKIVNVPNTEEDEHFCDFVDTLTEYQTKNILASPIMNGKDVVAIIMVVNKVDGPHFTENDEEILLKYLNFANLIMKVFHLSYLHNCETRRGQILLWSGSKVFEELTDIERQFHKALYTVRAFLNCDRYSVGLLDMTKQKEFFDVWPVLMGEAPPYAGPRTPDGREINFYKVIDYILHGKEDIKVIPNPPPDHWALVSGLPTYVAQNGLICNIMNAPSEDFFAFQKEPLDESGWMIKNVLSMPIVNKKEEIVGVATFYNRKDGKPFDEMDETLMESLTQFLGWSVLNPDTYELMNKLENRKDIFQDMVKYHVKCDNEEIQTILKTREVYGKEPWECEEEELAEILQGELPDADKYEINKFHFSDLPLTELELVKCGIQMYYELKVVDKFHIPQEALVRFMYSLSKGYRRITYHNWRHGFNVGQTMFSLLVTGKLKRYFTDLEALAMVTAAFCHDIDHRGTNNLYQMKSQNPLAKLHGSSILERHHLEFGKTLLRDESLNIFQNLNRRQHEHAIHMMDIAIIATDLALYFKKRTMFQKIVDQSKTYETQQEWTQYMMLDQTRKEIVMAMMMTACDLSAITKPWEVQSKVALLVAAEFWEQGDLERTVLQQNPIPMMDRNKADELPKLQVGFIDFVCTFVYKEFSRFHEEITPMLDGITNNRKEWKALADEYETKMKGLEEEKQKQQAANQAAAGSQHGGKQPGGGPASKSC
T2 sequence (P23439 2-850 limits assumed): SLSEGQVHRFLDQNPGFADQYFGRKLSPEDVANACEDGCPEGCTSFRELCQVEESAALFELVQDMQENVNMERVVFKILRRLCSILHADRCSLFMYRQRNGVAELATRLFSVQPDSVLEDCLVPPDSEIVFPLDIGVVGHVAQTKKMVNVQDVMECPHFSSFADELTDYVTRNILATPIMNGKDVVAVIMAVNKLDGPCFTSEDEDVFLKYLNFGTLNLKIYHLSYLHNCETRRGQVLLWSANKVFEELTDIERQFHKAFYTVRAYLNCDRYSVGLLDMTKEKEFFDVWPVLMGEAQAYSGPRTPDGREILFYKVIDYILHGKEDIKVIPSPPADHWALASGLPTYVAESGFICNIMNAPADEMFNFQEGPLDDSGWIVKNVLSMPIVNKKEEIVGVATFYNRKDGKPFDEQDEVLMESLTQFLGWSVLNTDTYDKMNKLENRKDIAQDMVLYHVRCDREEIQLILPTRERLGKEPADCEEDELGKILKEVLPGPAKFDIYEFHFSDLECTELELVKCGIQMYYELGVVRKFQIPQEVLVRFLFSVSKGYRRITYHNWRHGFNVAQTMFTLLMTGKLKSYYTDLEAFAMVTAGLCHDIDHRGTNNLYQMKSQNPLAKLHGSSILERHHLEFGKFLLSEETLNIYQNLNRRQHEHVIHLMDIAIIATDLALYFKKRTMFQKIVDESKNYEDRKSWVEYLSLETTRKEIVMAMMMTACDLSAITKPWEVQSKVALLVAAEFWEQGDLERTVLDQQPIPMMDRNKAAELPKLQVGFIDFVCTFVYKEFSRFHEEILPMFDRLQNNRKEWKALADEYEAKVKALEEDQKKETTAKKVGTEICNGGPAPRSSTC
Protocol: PDE6 partially purified from bovine retinal rod and activated by trypsin was used. […] Each reaction was terminated by raising the temperature to 100° C. for 2 minutes. The resulting GMP was converted to guanosine by addition of 10 mg/ml snake venom nucleotidase and further incubated at 30° C. for 10 minutes. Unhydrolyzed cGMP was bound to AGI-X2 resin, and [^3H]guanosine remaining in the aqueous phase was quantitated by scintillation counting.
PDE6: PDE6 partially purified from bovine retinal rod and activated by trypsin was used. […] Each reaction was terminated by boiling for 2 minutes. The resulting GMP was converted to guanosine by addition of 10 mg/ml snake venom nucleotidase, and further incubated at 30° C. for 10 minutes. Unhydrolyzed cGMP was bound to AGI-X2 resin, and [^3H]guanosine remaining in the aqueous phase was quantitated by scintillation counting.

SMILES: Cn1cc([S+](C)[O-])c(=O)c2ccc(F)cc21 (single isomer, unassigned; (-)) [(−)-flosequinan]
- % Inhibition of PDE1 [1]: 11%

SMILES: Cn1cc([S@@+](C)[O-])c(=O)c2ccc(F)cc21 [(+)-flosequinan]
- PDE1 inhibitory activity compared with the (−) enantiomer of flosequinan [1]: more PDE1 and PDE3 inhibitory activity
- % Inhibition of PDE1 [1]: 28%
- PDE3 inhibitory activity compared with the (−) enantiomer of flosequinan [2]: more PDE1 and PDE3 inhibitory activity

SMILES: O=C1CCc2cc(OCCCCc3nnnn3C3CCCCC3)ccc2N1 [cilostazol, 6-[4-(1-cyclohexyl-1H-tetrazol-5-yl)butoxy]-3,4-dihydro-2(1H)-quinolinone]
- time of peak plasma concentrations of cilostazol [3]: 2 to 4 h

SMILES: Cn1cc([S+](C)[O-])c(=O)c2ccc(F)cc21 (racemic) [Flosequinan, 7-fluoro-1-methyl-3-(methylsulphinyl)-4(1H)-quinolone]
- time of peak plasma concentrations of flosequinan ([4]; following oral administration): 1 to 2 h
- time of peak metabolite plasma levels ([4]; following oral dosage of flosequinan): about seven
- mean absolute bioavailability ([4]; oral, single dose of fifty milligrams): 72%
- solubility [5]: water soluble and is soluble in many organic solvents
- times more compound on a molar basis than Viagra for around 50% inhibition of PDE6 [6]: more than 300 times
- % Inhibition of PDE1 [1]: 31%
